Laboratory results published in patent publication US10954228B2 (NATIONAL INSTITUTES OF HEALTH, UNITED STATES DEPARTMENT OF …, priority 2016, dated 2021).

Legend:
MiaPaCa2 cells = experiment: cell-based HT lactate assay by colorimetric/fluorometric detection (cellular inhibition of lactate production)
Procedure: This example describes a cell-based metabolite assay by colorimetric/fluorometric detection employed in the characterization of a compound of formula (I) in an embodiment of the invention.
Cell-based HT Lactate assay is a miniaturized Biovision Lactate Colorimetric/Fluorometric Assay Kit (Cat #K607-100). The assay is roughly a 3.5 hour assay run in a 1536 plate format. Cell number optimization should be run for each cell line to achieve an optimal number in which lactate production equals roughly 90% of the standard curve range. Cell number per well optimization has been performed with the following cell lines: MiaPaCa2—500 cells/well, SNU398—500 cells/well, and P493—500 cells/well.

Human LDHA = Human LDHA (Homo sapiens (Human), UniProt P00338); experiment: human LDHA primary biochemical assay; details: biochemical LDHA inhibitory activity, assay of Example 1; activity level classes defined in nM
How it was run: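 Human LDHA at 2 nM with 0.06 mM NADH and 0.2 mM sodium pyruvate in 200 mM Tris HCl pH 7.4, 100 μM EDTA, 0.01% TWEEN-20 (final). NADH consumption coupled to resazurin/diaphorase (0.037 mM; 0.133 mg/mL); inhibition read by fluorescence.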

[1] = Homo sapiens, MIA PaCa-2, assay of Example 6

Compound	IC50 (MiaPaCa2 cells; [1]) [nM]	IC50 (Human LDHA) [nM]	IC50 (MiaPaCa2 cells; assay of Example 6) [nM]
NS(=O)(=O)c1ccc(Cc2c(-c3cccc(C#Cc4ccc(Cl)s4)c3)nn(-c3nc(C(=O)O)cs3)c2CC2CC2)cc1F [Compound 118, 2-(3-(3-((5-chlorothiophen-2-yl)ethynyl)phenyl)-5-(cyclopropylmethyl)-4-(3-fluoro-4-sulfamoylbenzyl)-1H-pyrazol-1-yl)thiazole-4-carboxylic acid]	< 1000	< 100	
Cc1ccc(/C=C/c2cccc(-c3nn(-c4nc(C(=O)O)cs4)c(CC4CC4)c3Cc3ccc(S(N)(=O)=O)c(F)c3)c2)s1 [Compound 119, (E)-2-(5-(cyclopropylmethyl)-4-(3-fluoro-4-sulfamoylbenzyl)-3-(3-(2-(5-methylthiophen-2-yl)vinyl)phenyl)-1H-pyrazol-1-yl)thiazole-4-carboxylic acid]	< 1000	< 100	
Cc1ccsc1C#Cc1cccc(-c2nn(-c3nc(C(=O)O)cs3)c(CC3CC3)c2Cc2ccc(S(N)(=O)=O)c(F)c2)c1 [Compound 120, 2-(5-(cyclopropylmethyl)-4-(3-fluoro-4-sulfamoylbenzyl)-3-(3-((3-methylthiophen-2-yl)ethynyl)phenyl)-1H-pyrazol-1-yl) thiazole-4-carboxylic acid]	< 1000	< 100	
Cc1cc(C)c(C#Cc2cccc(-c3nn(-c4nc(C(=O)O)cs4)c(CC4CC4)c3Cc3ccc(S(N)(=O)=O)c(F)c3)c2)s1 [Compound 125, 2-(5-(cyclopropylmethyl)-3-(3-((3,5-dimethylthiophen-2-yl)ethynyl)phenyl)-4-(3-fluoro-4-sulfamoylbenzyl)-1H-pyrazol-1-yl) thiazole-4-carboxylic acid]	< 1000	< 100	
CC(C)c1ccc(C#Cc2cccc(-c3nn(-c4nc(C(=O)O)cs4)c(CC4CC4)c3Cc3ccc(S(N)(=O)=O)c(F)c3)c2)s1 [Compound 127, 2-(5-(cyclopropylmethyl)-4-(3-fluoro-4-sulfamoylbenzyl)-3-(3-((5-isopropylthiophen-2-yl)ethynyl)phenyl)-1H-pyrazol-1-yl)thiazole-4-carboxylic acid]	< 1000	100 to 1000	
Cc1ccc(C#Cc2cccc(-c3nn(-c4nc(C(=O)O)cs4)c(CC4CC4)c3Cc3ccc(S(N)(=O)=O)c(F)c3)c2)o1 [Compound 129, 2-(5-(cyclopropylmethyl)-4-(3-fluoro-4-sulfamoylbenzyl)-3-(3-((5-methylfuran-2-yl)ethynyl)phenyl)-1H-pyrazol-1-yl)thiazole-4-carboxylic acid]	< 1000	< 100	
Cc1ccc(C#Cc2cccc(-c3nn(-c4nc(C(=O)O)cs4)c(C4CC45CC5)c3Cc3ccc(S(N)(=O)=O)c(F)c3)c2)s1 (stereo not shown) [Compound 131, 2-(4-(3-fluoro-4-sulfamoylbenzyl)-3-(3-((5-methylthiophen-2-yl)ethynyl)phenyl)-5-(spiro[2.2]pentan-1-yl)-1H-pyrazol-1-yl)thiazole-4-carboxylic acid]	< 1000	< 100	
Cc1ccc([C@H]2C[C@@H](c3cccc(-c4nn(-c5nc(C(=O)O)cs5)c(CC5CC5)c4Cc4ccc(S(N)(=O)=O)c(F)c4)c3)C2)s1 [Compound 132, 2-(5-(cyclopropylmethyl)-4-(3-fluoro-4-sulfamoylbenzyl)-3-(3-((cis)-3-(5-methylthiophen-2-yl)cyclobutyl)phenyl)-1H-pyrazol-1-yl)thiazole-4-carboxylic acid]	< 1000	< 100	
Cc1ccc(C2CC(c3cccc(-c4nn(-c5nc(C(=O)O)cs5)c(CC5CC5)c4Cc4ccc(S(N)(=O)=O)c(F)c4)c3)C2)s1 (stereo not shown) [Compound 133, 2-(5-(cyclopropylmethyl)-4-(3-fluoro-4-sulfamoylbenzyl)-3-(3-(3-(5-methylthiophen-2-yl)cyclobutyl)phenyl)-1H-pyrazol-1-yl)thiazole-4-carboxylic acid]		< 100	< 1000

More lines, main results first:

IC50 (MiaPaCa2 cells; [1]) [nM]	IC50 (Human LDHA) [nM]	Compound	IC50 (MiaPaCa2 cells; assay of Example 6) [nM]
< 1000	100 to 1000	NS(=O)(=O)c1ccc(Cc2c(-c3cccc(C#Cc4ccc(C5CC5)s4)c3)nn(-c3nc(C(=O)O)cs3)c2CC2CC2)cc1F [Compound 117, 2-(5-(cyclopropylmethyl)-3-(3-((5-cyclopropylthiophen-2-yl)ethynyl)phenyl)-4-(3-fluoro-4-sulfamoylbenzyl)-1H-pyrazol-1-yl)thiazole-4-carboxylic acid]	
< 1000	< 100	NS(=O)(=O)c1ccc(Cc2c(-c3cccc(C#Cc4ccc(C(F)F)s4)c3)nn(-c3nc(C(=O)O)cs3)c2CC2CC2)cc1F [Compound 121, 2-(5-(cyclopropylmethyl)-3-(3-((5-(difluoromethyl)thiophen-2-yl)ethynyl)phenyl)-4-(3-fluoro-4-sulfamoylbenzyl)-1H-pyrazol-1-yl)thiazole-4-carboxylic acid]	
< 1000	< 100	Cc1cnc(C#Cc2cccc(-c3nn(-c4nc(C(=O)O)cs4)c(CC4CC4)c3Cc3ccc(S(N)(=O)=O)c(F)c3)c2)o1 [Compound 122, 2-(5-(cyclopropylmethyl)-4-(3-fluoro-4-sulfamoylbenzyl)-3-(3-((5-methyloxazol-2-yl)ethynyl)phenyl)-1H-pyrazol-1-yl)thiazole-4-carboxylic acid]	
< 1000	< 100	Cc1ccc(C#Cc2cccc(-c3nn(-c4nc(C(=O)O)cs4)c(CC4(C)CC4)c3Cc3ccc(S(N)(=O)=O)c(F)c3)c2)s1 [Compound 123, 2-(4-(3-fluoro-4-sulfamoylbenzyl)-5-((1-methylcyclopropyl)methyl)-3-(3-((5-methylthiophen-2-yl)ethynyl)phenyl)-1H-pyrazol-1-yl)thiazole-4-carboxylic acid]	
< 1000	100 to 1000	NS(=O)(=O)c1ccc(Cc2c(-c3cccc(C#Cc4ccc(C(F)(F)F)s4)c3)nn(-c3nc(C(=O)O)cs3)c2CC2CC2)cc1F [Compound 124, 2-(5-(cyclopropylmethyl)-4-(3-fluoro-4-sulfamoylbenzyl)-3-(3-((5-(trifluoromethyl)thiophen-2-yl)ethynyl)phenyl)-1H-pyrazol-1-yl)thiazole-4-carboxylic acid]	
< 1000	< 100	Cc1ccc(C2CC2c2cccc(-c3nn(-c4nc(C(=O)O)cs4)c(CC4CC4)c3Cc3ccc(S(N)(=O)=O)c(F)c3)c2)s1 (stereo not shown) [Compound 130, 2-(5-(cyclopropylmethyl)-4-(3-fluoro-4-sulfamoylbenzyl)-3-(3-(2-(5-methylthiophen-2-yl)cyclopropyl)phenyl)-1H-pyrazol-1-yl)thiazole-4-carboxylic acid]	
< 1000	< 100	Cc1ccc(-c2cc(-c3nn(-c4nc(C(=O)O)cs4)c(CC4CC4)c3Cc3ccc(S(N)(=O)=O)c(F)c3)ccc2F)cc1F [Compound 137, 2-(5-(cyclopropylmethyl)-3-(3′,6-difluoro-4′-methyl-[1,1′-biphenyl]-3-yl)-4-(3-fluoro-4-sulfamoylbenzyl)-1H-pyrazol-1-yl)thiazole-4-carboxylic acid]	
< 1000	< 100	NS(=O)(=O)c1ccc(Cc2c(-c3ccc(F)c(-c4ccc(C(F)(F)F)cc4)c3)nn(-c3nc(C(=O)O)cs3)c2CC2CC2)cc1F [Compound 138, 2-(5-(cyclopropylmethyl)-3-(6-fluoro-4′-(trifluoromethyl)-[1,1′-biphenyl]-3-yl)-4-(3-fluoro-4-sulfamoylbenzyl)-1H-pyrazol-1-yl)thiazole-4-carboxylic acid]	
